# Reference: patent US20080226596A1, “Therapeutic compositions and methods useful in treating hepatitis” (priority 2006, published 2008)
# Key:
# Baf3 cells [1] = experiment: Cellular protein tyrosine phosphorylation in Baf3 cells (Western blot); type: cell-based, murine; conditions: IL-3-deprived Baf3 cells
# Experimental: For induction of cellular protein phosphorylation by sodium stibogluconate or pervanadate, Baf3 cells were incubated in 0.1% FCS-RPMI 1640 medium at 37° C. for 16 hours. The cells were then washed twice in RPMI 1640 medium and incubated with sodium stibogluconate or pervanandate (0.1 mM) for various times prior to termination by lysing cells in cold lysis buffer (50 mM Tris, pH 7.4; 150 mM NaCl; 0.2 mM Na3VO4; 20 mm NaF; 1% Nonidet P-40; 2 mM PMSF; 20 µg/ml of Aprotinin and 1 mM of sodium molybdic acid). To determine the effect of sodium stibogluconate or potassium antimonyl tartrate on IL-3-induced Jak/Stat phosphorylation, Baf3 cells were deprived of the growth factor for 16 hours in 0.1% FCS RPMI 1640 medium and then incubated with or without sodium stibogluconate or potassium antimonyl tartrate for 10 minutes. IL-3 was next added to the cell suspension and incubated for various times. The Cells were then harvested and lysed in cold lysis buffer at 4° C. for 45 minutes. Total cell lysates (TCL) were separated in SDS-PAGE gels, blotted onto nitrocellulose membrane (Schleicher & Schuell), probed with specific antibodies and detected using an enhanced chemiluminescence kit (ECL, Amersham, Arlington Heights, Ill.).
# Baf3 cells [2] = experiment: Baf3 cell proliferation assay; type: cell-based, murine
# Experimental: The murine hematopoietic cell line Baf3 was maintained in RPMI 1640 medium supplemented with 10% fetal calf serum (FCS) and murine IL-3 (20 units/ml) as described previously in Damen et al., J. Biol. Chem. 270, 23402 (1995). Human myeloid cell line TF-1 was maintained in RPMI 1640 supplemented with 10% FCS and 40 ng/ml of recombinant human GM-CSF as described previously in Thomassen et al., Clin. Immunol. 95, 85 (2000). For cell proliferation assays, cells were washed in 10% FCS medium twice, resuspended in 10% FCS medium, incubated at 37° C. for 16 hours, and then cultured at 37° C. in 10% FCS medium containing various amounts of cytokines, sodium stibogluconate, or potassium antimonyl tartrate for 3-6 days as indicated. The cell numbers in proliferation assays were determined by an MTT assay or by microscopic cell counting as indicated.
# NB4 cells = experiment: NB4 Annexin V/propidium iodide assay; type: cell-based, human; conditions: 250 μg/ml, 6 days
# Experimental: Annexin V staining of exposed membrane phospholipid phosphatidylserine (PS) was done using the Annexin V assay kit (Pharmingen, San Diego, Calif.). […] Cells were then washed in PBS twice and stained in binding buffer (10 mM Hepes, pH 7.4; 140 mM NaCl; 2.5 mM CaCl2) containing Annexin V-FITC and propidium iodide for 15 min. The reaction was stopped by adding 10 volumes of binding buffer and analyzed by FACS (Becton Dickinson Facsvantage).
# [3] = Toxicity/tolerance of sodium stibogluconate in nude mice; type: in vivo
# Experimental: The dosage of sodium stibogluconate corresponds to approximately 440 mg Sb/kg body weight (average mouse body weight 27 g), substantially higher than the standard therapeutic dose of 20 mg Sb/kg and the high dose (143 mg Sb/kg) that was clinically used by accident without serious toxicity. This dose of sodium stibogluconate was based on a previous observation in a pilot study that mice could tolerate daily dose of 20 mg Sb (approximately 700-800 mg Sb/kg). […] In light of the relatively rapid rate of clearance of the drug in vivo, 440 mg Sb/kg dosage was used to ensure the detection of the effectiveness of the drug for this initial study.
# As discussed above, the dosage of sodium stibogluconate used for the treatment of nude mice was 12 mg Sb/mouse, s.c., daily (or approximately 440 mg/kg body weight). This dosage is much higher than the standard dose for leishmaniasis (20 mg Sb/kg, daily). As an initial step to assess the toxicity of such a high dosage of sodium stibogluconate in nude mice, the effect of sodium stibogluconate on the viability and body weights of WM9 xenografts nude mice during the 25 day period of the study was determined.
# Jurkat cells = experiment: IFN-gamma secretion by Jurkat cells, ELISA; type: cell-based, human; conditions: 16 hrs
# Experimental: Jurkat cells were cultured in the absence or presence of various amounts of SSG for 16 hours. The cells and culture medium supernatants were separated by centrifugation (1,000 g, 10 min). The amounts of IFN-gamma in the culture medium supernatants were quantified using an ELISA kit (R.D. system, Minneapolis, Minn.) following the manufacturer's protocol.
# intracellular Flag-PRL-3 = target: T1, intracellular Flag-PRL-3 (Homo sapiens, UniProt O75365); experiment: Immunocomplex PTPase assay, Flag-PRL-3 NIH3T3 transfectants; type: cell-based, mouse; conditions: 5 min treatment
# T1 construct: expressed in transfected cells; host or cells: NIH3T3 transfectants, pBabepuro vector
# T1 sequence (O75365 whole entry): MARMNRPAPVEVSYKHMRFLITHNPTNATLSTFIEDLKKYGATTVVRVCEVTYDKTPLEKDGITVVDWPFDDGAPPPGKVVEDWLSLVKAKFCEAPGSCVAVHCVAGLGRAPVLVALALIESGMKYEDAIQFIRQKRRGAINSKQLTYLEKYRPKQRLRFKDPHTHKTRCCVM
# Experimental: Immunocomplex PTPase assays were performed to assess the effects of sodium stibogluconate on intracellular PTPases. Cells were untreated or treated with sodium stibogluconate for 5 minutes, washed with fresh medium and then lysed in cold lysis buffer (50 mM Tris, pH 7.4; 150 mM NaCl; 1% NP40; 2 mM PMSF; 20, g/ml of Aprotinin). The lysates were incubated with an anti-Flag antibody in immunoprecipitation assays. The immunocomplexes were collected with protein G sepharose beads (Pharmacia) and washed in cold lysis buffer for 4 times. […] 100 µL of malachite green solution (UBI) was added to each reaction prior to measurement of OD660 to quantify the amounts of free phosphate cleaved by the PTPases from the peptide substrate (Pathak et al., J. Imumol. 167, 3391 (2001)). The remaining 10% contents of individual samples were analyzed by SDS-PAGE/Western blotting to quantify the relative amounts of the phosphatase proteins. […]
# The effects of sodium stibogluconate on intracellular PTPases were assessed using NIH3T3 or WM9 transfectants. […]
smiles,measurement,setting,value
O.O.O.O.O.O.O.O.O.O=C([O-])[C@@H]1[O][Sb]2([O-])([O][Sb]34([OH])[O][C@H]([C@H](O)CO)[C@H]([O]3)[C@H](C(=O)[O-])[O]4)[O][C@H]([C@H](O)CO)[C@@H]1[O]2.[Na+].[Na+].[Na+] [sodium stibogluconate],cellular protein tyrosine phosphorylation,Baf3 cells [1],induced protein tyrosine phosphorylation
same,IL-3-induced Baf3 growth,"Baf3 cells [2]; 1,000 μg/ml",suppressed IL-3-induced Baf3 growth
same,Baf3 proliferation/viability,"Baf3 cells [2]; absence of IL-3, day 3 culture",failed to support cell proliferation or maintain cell viability
same,Annexin V staining of NB4 cells,NB4 cells,stained positive by Annexin V
same,tolerability,[3]; 12 mg Sb daily (440 mg Sb/kg daily),well tolerated with no serious side effects
same,tolerated daily dose in mice,[3]; pilot study,20 mg Sb
same,tolerated daily dose in mice per body weight,[3]; pilot study,700-800 mg Sb/kg
same,internal organs on dissection,[3]; two mice from each group,no apparent abnormality of the internal organs
same,survival of WM9-inoculated nude mice,"[3]; until day 25, 4 mice/group",survived
same,IFN-gamma secretion by Jurkat T cells,Jurkat cells,increased amounts of IFN-gamma
same,PTPase activity of Flag-PRL-3 immunocomplexes from treated cells,intracellular Flag-PRL-3,lack of PTPase activity
